Results as given in ChEMBL document CHEMBL1649061, “Synthesis and pharmacological evaluation of N-(3-(1H-indol-4-yl)-5-(2-methoxyisonicotinoyl)phenyl)methanesulfonamide (LP-261), a potent antimitotic agent” (J Med Chem, 2011).
Active and inactive are the calls of the source. No cut-off for these calls is given here.

Key:
[1] = Cytotoxicity against human NCI-ADR-RES expressing MDR1 cells after 48 to 72 hrs by […] assay; type: functional, cell-based
MCF7 = assay: Cell cycle arrest in human MCF7 cells assessed as accumulation at G2/M phase after 24 hrs using propidium iodide staining by FACS analysis; type: functional, cell-based; settings: MCF7, 24 h
SW-620 [2] = assay: Cytotoxicity against human SW620 cells after 48 to 72 hrs by […] assay; type: functional, cell-based
HeLa = assay: Cytotoxicity against human HeLa cells after 48 to 72 hrs by […] assay; type: functional, cell-based
NCI-H23 = assay: Cell cycle arrest in human NCI-H23 cells assessed as accumulation at G2/M phase after 24 hrs using propidium iodide staining by FACS analysis; type: functional, cell-based; settings: NCI-H23, 24 h
PC-3 = assay: Cell cycle arrest in human PC3 cells assessed as accumulation at G2/M phase after 24 hrs using propidium iodide staining by FACS analysis; type: functional, cell-based; settings: PC-3, 24 h
U-266 = assay: Cell cycle arrest in human U266 cells assessed as accumulation at G2/M phase after 24 hrs using propidium iodide staining by FACS analysis; type: functional, cell-based; settings: U-266, 24 h
[3] = Inhibition of tubulin polymerization after 60 mins
BXPC-3 = assay: Cell cycle arrest in human BxPC3 cells assessed as accumulation at G2/M phase after 24 hrs using propidium iodide staining by FACS analysis; type: functional, cell-based; settings: BXPC-3, 24 h
A2780 = assay: Cytotoxicity against human A2780 cells after 48 to 72 hrs by […] assay; type: functional, cell-based
NCI-H522 = assay: Cell cycle arrest in human NCI-H522 cells assessed as accumulation at G2/M phase after 24 hrs using propidium iodide staining by FACS analysis; type: functional, cell-based; settings: NCI-H522, 24 h
SW-620 [4] = assay: Cell cycle arrest in human SW620 cells assessed as accumulation at G2/M phase after 24 hrs using propidium iodide staining by FACS analysis; type: functional, cell-based; settings: SW-620, 24 h
Jurkat = assay: Cell cycle arrest in human Jurkat cells assessed as accumulation at G2/M phase after 24 hrs using propidium iodide staining by FACS analysis
[5] = Displacement of [3H]colchicine from tubulin at 30 uM
[6] = Oral bioavailability in Sprague-Dawley rat at 20 mg/kg; type: ADME, organism-based; settings: in vivo

SMILES | IC50 [1] | IC50 (MCF7) | IC50 (SW-620 [2]) | IC50 (HeLa) | IC50 (NCI-H23) | IC50 (PC-3) | IC50 (U-266) | EC50 [3] | IC50 (BXPC-3) | IC50 (A2780) | IC50 (NCI-H522) | IC50 (SW-620 [4]) | IC50 (Jurkat) | inhibition [5] | bioavailability [6]
COC(=O)Nc1cc(C(=O)c2ccnc(N3CCOCC3)c2)cc(-c2cccc3[nH]ccc23)c1 | 0.3 µM | 0.03 µM | 0.25 µM | 0.28 µM | 0.03 µM | 0.02 µM | 0.12 µM | 4.6 µM | 0.01 µM | 0.22 µM |  |  |  |  | 
CC(=O)Nc1cc(C(=O)c2cc(C)nc(N3CCOCC3)c2)cc(-c2cccc3[nH]ccc23)c1 | 1.1 µM | 0.01 µM | 0.45 µM | 0.49 µM | 0.04 µM | 0.05 µM | 0.02 µM |  | 0.07 µM | 0.35 µM |  |  |  |  | 
COc1cc2c(c(OC)c1OC)-c1ccc(OC)c(=O)cc1[C@@H](NC(C)=O)CC2 [COLCHICINE] |  |  |  |  | 0.013 µM | 0.033 µM | 0.01 µM | 2 µM | 0.016 µM |  | 0.014 µM | 0.014 µM | 0.017 µM | 79% | 
CC(=O)O[C@H]1C(=O)[C@@]2(C)[C@H]([C@H](OC(=O)c3ccccc3)[C@]3(O)C[C@H](OC(=O)[C@H](O)[C@@H](NC(=O)c4ccccc4)c4ccccc4)C(C)=C1C3(C)C)[C@]1(OC(C)=O)CO[C@@H]1C[C@@H]2O [PACLITAXEL] | 13 µM |  | 0.03 µM | 0.02 µM |  |  |  |  |  | 0.01 µM |  |  |  |  | 
CC[C@]1(O)C[C@H]2CN(CCc3c([nH]c4ccccc34)[C@@](C(=O)OC)(c3cc4c(cc3OC)N(C=O)[C@H]3[C@@](O)(C(=O)OC)[C@H](OC(C)=O)[C@]5(CC)C=CCN6CC[C@]43[C@@H]65)C2)C1 [VINCRISTINE] |  |  |  |  |  |  |  | 2.5 µM |  |  |  |  |  | inactive | 
COc1ccc(S(=O)(=O)Nc2cccnc2Nc2ccc(O)cc2)cc1 [ABT-751] | 0.29 µM |  | 0.19 µM | 0.27 µM |  |  |  |  |  | 0.17 µM |  |  | 0.16 µM |  | 
Oc1cc(Nc2cccnc2)cc(-c2cccc3[nH]ccc23)c1 |  |  |  |  |  |  |  |  |  |  |  |  |  |  | 24%
